In US12359259B2, “Biomarkers for predicting prostate cancer progression” (ACADEMIA SINICA, priority 2018, dated 2025):

Columns and labels:
Type in all cases: cell-based
LNCaP-CR4 cells = test: Colony-formation assay under enzalutamide treatment; conditions: LNCaP-CR4 vs LNCaP; 10 days
MYC and C1GALT1 = test: Immunoblots of MYC and C1GALT1 levels under inhibitor treatment; conditions: 22Rv1-M4 and galectin-4-expressing 22Rv1 and LNCaP cells; 24 h
Excerpt: Data are expressed as mean±SEM. *P<0.05, **P<0.01, ***P<0.001 (unpaired t-test, two-tail).

[1] = system: LNCaP-tetO-Gal4 and 22Rv1-tetO-Gal4 cells; test: Lectin binding assay (flow cytometry) of cell surface glycans after glycosylation inhibitor treatment
Procedure: FIG. 8A to FIG. 8C show the characterization of glycophenotype in prostate cancer cells. FIG. 8A and FIG. 8B show lectin binding assay of LNCaP-tetO-Gal4 (A) and 22Rv1-tetO-Gal4 (B) cells treated with 3 μM Swainsonine or 4 mM Benzyl-α-GalNAc for 2 day following galectin-4 induction by doxycycline. […] Below, the mean fluorescence intensity (MFI) values from triplicates. Data are expressed as mean±SEM. *P<0.05, **P<0.01, ***P<0.001 (unpaired t-test, two-tail).
To profile cell surface glycans, cells were detached by Accutase (Innovative Cell Technologies, San Diego, CA) treatment, washed with PBS for three times, and suspended in Carbo-Free Blocking Solution (VECTOR, Burlingame, CA). Cells were incubated with biotin-conjugated lectins, PHA-L (2 μg/mL), PNA (10 μg/mL), MALII (5 μg/mL), Jacalin (5 μg/mL, VECTOR), and galectin-4 (5 μg/mL), or BSA as a control followed by APC-labeled streptavidin. After incubation for 30 min on ice, cells were analyzed on an Accuri C6 flow cytometer (BD Biosciences, Taiwan). Galectin-4 (R&D Systems, Minneapolis, MN) and BSA were biotinylated using Lightning-Link Rapid Conjugation System (Innova Biosciences, Cambridge, UK) following the manufacturer's instructions.

[2] = system: HER2/3 phosphorylation, AR, and PSA expression; test: Immunoblots of HER2/3 phosphorylation, AR and PSA expression after galectin-4 induction
SOX9 expression = test: Immunoblots of SOX9 expression in 22Rv1-M4 cells; conditions: 3 μM Swainsonine or 4 mM Benzyl-α-GalNAc for 2 days
[3] = 4 mM Benzyl-α-GalNAc for 2 day, PCa cells

## CNC(=O)c1ccc(N2C(=S)N(c3ccc(C#N)c(C(F)(F)F)c3)C(=O)C2(C)C)cc1F [enzalutamide]
LNCaP-CR4 cells
  clonogenic growth of LNCaP-CR4 cells under enzalutamide: resistance

## N#CC(=C(N)Sc1ccc(N)cc1)c1ccccc1C(F)(F)F [MEK1/2 inhibitor]
MYC and C1GALT1
  induction of MYC and C1GALT1 compared to vehicle treatment: blocked

## CC(=O)N[C@H]1[C@@H](OCc2ccccc2)O[C@H](CO)[C@H](O)[C@@H]1O [benzyl-α-GalNAc]
[1]; [3]
  binding of treated cells to MALII: reduced
  binding of treated cells to PNA: increased
[1]; PCa cells
  biosynthesis of α2,3-sialyl-T antigen: significantly impaired
[2]; 4 mM Benzyl-α-GalNAc for 2 day, galectin-4 expressing LNCaP and 22Rv1 cells
  galectin-4-mediated activation of HER2/3 and AR signaling: blocked
[2]; PCa cells
  galectin-4 activity: suppressed
SOX9 expression
  SOX9 expression: significantly inhibited

## O[C@H]1[C@H]2[C@H](O)CCCN2C[C@H]1O [swainsonine]
[1]; 3 μM Swainsonine for 2 day following doxycycline-mediated galectin-4 induction, LNCaP and 22Rv1 cells
  PHA-L staining for N-glycans: decreased
[2]; 3 μM Swainsonine for 2 day, galectin-4 expressing LNCaP and 22Rv1 cells
  HER2/3 phosphorylation and induction of AR and PSA protein expression: did not affect
SOX9 expression
  SOX9 expression: did not affect
